Columns and labels:
[1] = system: Saccharomyces cerevisiae; assay: Cell aggregates after incubation of compound with Saccharomyces cerevisiae strains as measure of chitinase inhibitory activity; format: functional
[2] = system: Saccharomyces cerevisiae; assay: Cell aggregates after mild sonication of compound with Saccharomyces cerevisiae strains as measure of chitinase inhibitory activity; format: functional

## O=C1NCC(=O)N2CCC[C@@H]12 [CYCLO(PROLYLGLYCYL)]
[1]
  Cell aggregates: 75.7
[2]
  Cell aggregates: 33.2

## O=C1N[C@@H](Cc2ccc(O)cc2)C(=O)N2CCC[C@@H]12
[1]
  Cell aggregates: 77.5
[2]
  Cell aggregates: 33.9

## O=C1N[C@@H](Cc2cnc[nH]2)C(=O)N2CCC[C@@H]12
[1]
  Cell aggregates: 90
[2]
  Cell aggregates: 32.7

— ChEMBL document CHEMBL1137230, “Structure-based exploration of cyclic dipeptide chitinase inhibitors” (2004)
